# Assays:
# B16F10 melanoma tumors = test: Murine melanoma tumor model (B16F10 in C57BL/6 mice); assay type: in vivo; details: for tumor growth: FIG. 14A
# Method: Mice were injected with 1×10^5 B16F10 murine melanoma cells murine subcutaneously on the left flank. Once tumors become palpable (approximately 5 days), mice were randomly allocated to receive treatment with either: 20% polyethylene glycol (PEG) in 5% […] (vehicle control for the disclosed HIF-2α stabilizer) and PBS (vehicle control for GM-CSF), 20% PEG and GM-CSF (100 ng per mouse in a 50 μL volume), the disclosed HIF-2α stabilizer (17.5 mg/kg in a 100 μL volume) and PBS, or the disclosed HIF-2α stabilizer and GM-CSF (same doses). The PBS and GM-CSF were administered intratumorally, while the 20% PEG and the disclosed HIF-2α stabilizer were administered intraperitoneally. Mice were treated 3 times per week until tumors reached a size of 20 mm in any dimension (approximately 2.5 weeks), at which point mice were euthanized, in accordance with institutional policy. Tumor diameters were measured 3 times per week with calipers, and tumor volumes were calculated as follows: Tumor volume=0.5×[(large diameter)×(small diameter)^2].
# 6-8-week-old C57BL/6 mice were injected with 1×10^5 B16F10 murine melanoma cells murine subcutaneously on the left flank. Once tumors become palpable (approximately 5 days), mice were randomly allocated to receive treatment with either: 20% PEG-400 in 5% sucrose (vehicle for disclosed HIF-2α stabilizer) and PBS (vehicle for GM-CSF), 20% PEG-400 and GM-CSF (100 ng per mouse in a 50 μL volume), disclosed HIF-2α stabilizer (17.5 mg/kg mouse weight in a 100 μL volume) and PBS, or the disclosed HIF-2α stabilizer and GM-CSF (same concentrations). The disclosed HIF-2α stabilizer (or the vehicle control) was administered intraperitoneally, while GM-CSF (or the vehicle control) was administered intratumorally. Mice were treated […] 3 times per week until tumors reached a size of 20 mm in any dimension (approximately 2.5 weeks), at which point mice were be euthanized, in accordance with institutional policy. Tumor diameters were measured 3 times per week with calipers, and tumor volumes will be calculated as follows: Tumor volume=0.5×[(large diameter)×(small diameter)^2]. For experiments analyzing the effect of neutralizing sVEGFR-1 in combination with disclosed HIF-2α stabilizer treatment, mice were treated intraperitoneally 3×/week with either disclosed HIF-2α stabilizer or vehicle control, and intratumorally with either 4 μg anti-VEGFR-1 neutralizing antibody (R&D Systems) or 4 μg polyclonal goat IgG isotype control (Santa Cruz Biotechnology) in a 50 μL volume. All protocols were approved by the Ohio State University Animal Care and Use Committee, and mice were treated in accordance with institutional guidelines for animal care.
# The ANOVA test was used to compare independent measurements between multiple treatment groups. The data was log-transformed to normalize the variance across groups. P-values were adjusted using the Holm's procedure to conserve the type I error at 0.05 due to the multiple comparisons. For tumor growth data, changes in tumor volume over time were assessed via a longitudinal model. Tumor values were log-transformed, and estimated slopes (changes in tumor volume over time) were calculated with 95% confidence intervals. Estimated differences in tumor volume were calculated by a random-effects regression of the longitudinal data. For all analyses, p≦0.05 was considered statistically significant.
# To confirm that the modulation of tumor growth and angiogenesis was due to sVEGFR-1 production in response to the disclosed HIF-2α stabilizer, mice were treated with the disclosed HIF-2α stabilizer in the presence or absence of an sVEGFR-1 neutralizing Ab.
# 6-8-week-old C57BL/6 mice or SCID mice were injected with 1×10^5 B16F10 murine melanoma cells or 1×10^6 A375 human melanoma cells, respectively, subcutaneously on the left flank. […]
# Pmel17 mRNA = test: Evaluation of lung metastases (Pmel17 mRNA, nested PCR) in B16F10 tumor-bearing mice; assay type: in vivo; details: FIG. 5; stabilizer I.P., GM-CSF I.T.; vs. vehicle control
# Method: Lung metastases were evaluated by detection of mRNA for melanocyte-specific proteins within the lungs of tumor-bearing mice. B16F10 tumor-bearing mice were treated with GM-CSF and/or the disclosed HIF-2α stabilizer, as depicted in FIG. 3. At the time of sacrifice, lungs were excised and flash-frozen in liquid nitrogen. Frozen lungs were homogenized in liquid nitrogen and the pulverized material was dissolved in TRIzol™ reagent (Invitrogen). […] The melanocyte-specific Pmel17 was detected by nested PCR using a modification of the protocol described by Tsukamoto et al. For the initial reaction, 30 cycles of PCR were carried out (95° C. for 1 minute, 58° C. for 1 min, 72° C. for 1 min) in a 20 μL reaction volume containing 2 μL of cDNA. […] Data were analyzed according to the comparative threshold method and normalized against the GAPDH internal control transcript. Results are semi-quantitative and represent the fold difference in transcript levels in vehicle-treated control mice as compared with levels in mice treated with the disclosed HIF-2α stabilizer and/or GM-CSF.
# Lung metastases were evaluated by detection of mRNA for melanocyte-specific proteins within the lungs of tumor-bearing mice. […] Data were analyzed according to the comparative threshold method and normalized against the β-actin internal control transcript. […]
smiles,measurement,setting,value
"O=C(O)CNC(=O)c1ncc(-c2cccc(F)c2)cc1O [disclosed HIF-2α stabilizer, {[5-(3-Fluorophenyl)-3-hydroxypyridine-2-carbonyl]amino}acetic acid]",tumor growth (tumor volume),"B16F10 melanoma tumors; FIG. 3, stabilizer 17 mg/kg I.P., GM-CSF 100 ng per mouse I.T., 3 times per week, vs. PBS control",reduces tumor growth
same,increase in median survival,"B16F10 melanoma tumors; FIG. 12B, median survival defined as the time to a tumor diameter of 20 mm, 17.5 mg/kg intraperitoneal 3x/week, p=0.023",3 days
same,average tumor volumes vs. vehicle controls,"B16F10 melanoma tumors; day 16 of treatment, GM-CSF 100 ng/mouse intratumoral or stabilizer 17.5 mg/kg intraperitoneal, 3x/week, each p<0.001",significantly smaller
same,tumor growth,"B16F10 melanoma tumors; mice also treated with the anti-sVEGFR-1 neutralizing antibody, p=0.245",no effect on tumor growth
same,tumor growth,"B16F10 melanoma tumors; mice treated with an isotype control antibody, p<0.001",decreased tumor growth
same,relative metastasis to the lung as measured by Pmel17 mRNA expression,Pmel17 mRNA,reduced metastasis
